Laboratory results: patent US20030203963A1, “Antimicrobial agent” (priority 2001, published 2003)

How the values were obtained:
[1] = Stability in water; type: physicochemical; conditions: water at 24° C.
Protocol: Tests indicate that APP is stable in water at 24° C. for 2 weeks, but completely disappears after 2 months. […] At pH 11-12.5 APP has a half-life of 5 h. Since most food is acidic or neutral, the stability may therefore be improved by using APP in combination with an antioxidant such as those listed hereinbefore.

[2] = tested on: Salmonella sp. S19; test: Bioscreen growth inhibition test; type: cell-based; conditions: BS010510, 24 h/30, APP20010213
Protocol: (§1) For broth cultures and Bioscreen testing most bacteria were grown in Brain Heart Infusion (BHI, Oxoid, pH 7.4). Lactobacillus sake A10 was grown in de Man, Rogosa, Sharpe medium ([…], Oxoid). Yeasts were grown in Sabouraud Liquid medium (SLM, Oxoid). Most bacteria were cultured at 30° C. Lactic acid bacteria were grown on solid medium in enriched CO2 atmosphere. Clostridium species were grown in Reinforced Clostridial Medium (RCM) at 37° C. anaerobically. Brochothrix thermosphacta fungi and yeasts were grown at 25° C. Fungi were cultured on Malt Extract Agar (MEA, Oxoid).
(§2) An automated Microbiology Reader Bioscreen C was used to measure growth curves of the strains in the presence and absence of APP. The Bioscreen C measures the development of turbidity (i.e. growth) kinetically by vertical photometry in 200 wells of a honeycomb microtitre plate, simultaneously. The system consists of a Bioscreen C analyser, which is an incubator and measurement unit, integrated with a PC, software (BioLink v 5.30), printer and a ‘Honeycomb 2’ cuvette multiwell plate. Growth curve data can be analysed within the BioLink software or exported to programs such as Excel.
Broth culture media were dispensed in 270 μl volumes into the wells as directed. […] (depending on the micro-organism under investigation) with readings taken every 20 minutes after the trays were shaken. […]

[3] = tested on: TAVC; test: Inoculated test in raw meat; type: cell-based; conditions: 2000 ppm; inoculated raw meat at 8° C., TRM010620; TAVC 10^6 rising to >10^7 cfu/g
Protocol: Fresh beef steak was purchased from the local butcher, and minced on clean machinery. The raw meat (ca. pH 6.2) was divided into 8×90 samples and inoculated-with 10^3 cfu/ml of test organisms. The meat was mixed thoroughly using a stomacher. 10 g of SDW or 2% APP (Batch number APP20010215) was added, and the meat was again thoroughly mixed. An initial viable count was taken, the meat was incubated at 8° C., and sampled on the following days using non-selective agar (MPCA) and selective agar: XLD for Salmonella; Oxford selective agar (Listeria monocytogenes); and STAA agar (Brochothrix thermosphacta). The pH of the raw meat was pH 5.3.

[4] = tested on: Cl. tyrobutyricum 2753; test: Sensitivity testing for Clostridium species in cooked meat medium; type: cell-based; conditions: highest level tested 2000 ppm APP20010215, anaerobically at 37° C.
Protocol: Stock solutions of APP215 (0.5, 1 and 2%) were prepared and filter-sterilised. Cooked meat medium (CMM, Oxoid) was prepared by distributing 1 g of the medium to individual test tubes, which were then filled with 8.9 ml water. After autoclaving 100 μl of the APP stock solutions were added, to give final concentrations of 0, 500, […] and 2000 ppm APP. The tests were inoculated with […] of Clostridium spores, to give an inoculum level of ca. 10 cfu/ml. The tubes were overlaid with 3 ml of 2% agar to maintain anaerobicity. The tests were incubated at 37° C., and examined daily for signs of growth (turbidity, gas production).

[5] = tested on: L. monocytogenes; test: Test in milk; type: cell-based, Listeria monocytogenes; conditions: 2000 ppm, TMGB010605
Protocol: 8.9 ml samples of UHT milk containing 0.5% glucose and the indicator bromocresol purple (0.01%) were prepared and sterilised by autoclaving. The pH before APP addition was pH 6.65. Appropriate stock solutions of APP batch number APP20010215 (at 138 mg/ml) were prepared and filter sterilised. 1 ml of each was added to the milk to prepare tests containing 0, 1000 and 2000 ppm APP. Tests were then inoculated with 100 μl of diluted overnight broth cultures or spore suspensions to give a final inoculum level of ca. 10^3 cfu/ml. These and uninoculated tests were incubated at 20 and 8° C. and examined daily for visible changes compared to uninoculated control.

[6] = tested on: S. cerevisiae 9763; test: Chicken soup trial at 8° C.; type: cell-based, Saccharomyces cerevisiae; conditions: for Effect on growth: chicken soup at 8° C., TCSM010521, APP215
From the text: (§3) A local supermarket brand of cream of chicken soup was used as a model food system. 600 g packs were purchased from the local supermarket. This was a ‘fresh home-made type’ of soup that was stored in the chill cabinet, with a short shelf life. It was chosen because it is a rich, nutritious food system containing a range of food components including meat, dairy and vegetable.
(§4) Ingredients were labelled as: chicken stock (water, duck fat, chicken, salt, flavourings, yeast extracts, pork gelatine, glucose syrup, vegetable concentrate, milk protein, sugar, malto-dextrin, vegetable oil, citric acid, lactose, chicken fat), ilk, chicken (9%), cream (8%), onion, potato, vegetable oil, modified maize starch, wheat flour, lemon juice, salt, white pepper. pH 5.912. Protein: 3.3%; carbohydrate: 4.7%; fat: 7.2%; fibre: 0.2%; sodium: 0.1%
(§5) For the test the soup was mixed 2:1 in water (to facilitate sampling and mixing) and sterilised by autoclaving at 121° C. for 15 minutes. For each experiment the pH of the soup was recorded; this was between pH 5.79-5.88.
(§6) For TCS010521/8 (incubated at 8° C.), samples were prepared in 27.8 g quantities. 1.5 g of an APP stock solution was added, and the tests inoculated with 0.3 ml of a suitably diluted cell or spore suspension to give a final inoculum of ca. 10^3 cfu/g. APP was tested at 0, 500 and 1000 ppm, and batch number APP20010213 (at 169 mg/ml) was used. The tests were sampled by viable count and then incubated at 8° C. and tested on a twice-weekly basis.

[7] = tested on: Salm Typhimurium S29; test: Chicken soup trial at 8° C.; type: cell-based, Salmonella Typhimurium; conditions: chicken soup at 8° C., TCSM010521, APP215
From the text: as §3, §4, §5
as §6, with “The tests were sampled by viable count and then incubated at 8° C. and tested on a twice-weekly basis.” left out

[8] = tested on: Salm. Typhimurium S29; test: Bioscreen growth inhibition test; type: cell-based, Salmonella Typhimurium; conditions: BS010411, 24 h/30° C.
Protocol: as §1, §2
Broth culture media were dispensed in 270 μl volumes into the wells as directed. Serial dilutions of a filter-sterilised APP stock solution were then dispensed into the same wells, as appropriate. The wells were inoculated with 30 μl of an appropriately diluted overnight broth culture or spore suspension, to give a final inoculum level of […]. The tests were incubated in the Bioscreen C for either 24 h at 30° C., or 72 h at 25° C. (depending on the micro-organism under investigation) with readings taken every 20 minutes after the trays were shaken. After the incubation period was complete the data were exported to Excel for analysis.

SMILES: O=C1CC(CO)OC=C1O (stereo not shown) [APP, Ascopyrone P]
- Completely disappears after [1]: 2 months
- Stable in water for [1]: 2 weeks
- APP level causing total inhibition [2]: 4000 ppm
- Effect of APP [3]: No significant effect
- Growth inhibition [4]: No growth inhibition
- Control of growth ([5]; milk at 8° C.): No control observed
- Control of growth ([5]; milk at 20° C.): No control observed
- Effect on growth ([6]; 500 ppm): No effect with 500 and 1000 ppm
- Effect on growth ([6]; 1000 ppm): No effect with 500 and 1000 ppm
- No inhibition (effect on growth of target organism by APP) ([6]; Chicken soup at 8° C. pH 5.8, (1000 ppm)): S. cerevisiae (1000
- Total inhibition for ([7]; 500 ppm): Total inhibition by 500 ppm for 25 d
- Total inhibition for ([7]; 1000 ppm): Total inhibition by 1000 ppm for >27 d
- APP level causing significant inhibition ([8]; APP 20010213): 2000 ppm
- APP level causing total inhibition ([8]; APP 20010213): 4000 ppm
- APP level causing significant inhibition ([8]; APP 20010215): 2000 ppm
- APP level causing total inhibition ([8]; APP 20010215): >4000 ppm
